In patent US20240383904A1, “HETEROCYCLIC COMPOUNDS” (Hoffmann-La Roche Inc., priority 2021, published 2024):

Target: T1, MAGL (Homo sapiens, UniProt Q99685)
T1 sequence (Q99685 1-303): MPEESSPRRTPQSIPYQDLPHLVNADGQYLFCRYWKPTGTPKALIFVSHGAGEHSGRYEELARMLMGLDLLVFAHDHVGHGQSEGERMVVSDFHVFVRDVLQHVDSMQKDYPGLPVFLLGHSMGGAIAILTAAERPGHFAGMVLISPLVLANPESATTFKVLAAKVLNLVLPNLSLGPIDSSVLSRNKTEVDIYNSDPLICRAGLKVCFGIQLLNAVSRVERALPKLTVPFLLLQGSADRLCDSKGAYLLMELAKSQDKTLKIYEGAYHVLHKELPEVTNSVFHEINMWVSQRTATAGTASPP
Assay: 2-AG assay: MAGL inhibitory activity by hydrolysis of 2-arachidonoylglycerol to arachidonic acid, followed by mass spectrometry
Format: biochemical
Conditions: 15 min preincubation, 30 min reaction at RT, 8 μM 2-arachidonoylglycerol

Q: For `O=C1CCC2(CN(C(=O)N3CC4(CC(Cc5ncc(C(F)(F)F)cc5F)C4)C3)C2)N1` [Example 7, 2-[6-[[3-fluoro-5-(trifluoromethyl)-2-pyridyl]methyl]-2-azaspiro[3.3]heptane-2-carbonyl]-2,5-diazaspiro[3.4]octan-6-one], which IC50 is on record?
A: 0.35 nM

Q: For `O=C1NC2(CO1)CN(C(=O)N1CC3(CCC(Oc4cnc(C(F)(F)F)cn4)C3)C1)C2` (stereo not drawn) [Example 71, 2-[6-[5-(trifluoromethyl)pyrazin-2-yl]oxy-2-azaspiro[3.4]octane-2-carbonyl]-7-oxa-2,5-diazaspiro[3.4]octan-6-one], which IC50 is on record?
A: 3.29 nM

Q: With `CS(=O)(=O)c1cc(C(F)(F)F)ccc1C1CC2(C1)CN(C(=O)N1CC3(COC(=O)N3)C1)C2` [Example 117] as the molecule, how does the IC50 read?
A: 1.96 nM

Q: For `O=C1NC2(CO1)CN(C(=O)N1CC3(CCN(Cc4ccc(C(F)(F)F)nc4)CC3)C1)C2` [Example 151, 2-[7-[[6-(trifluoromethyl)-3-pyridyl]methyl]-2,7-diazaspiro[3.5]nonane-2-carbonyl]-7-oxa-2,5-diazaspiro[3.4]octan-6-one], which IC50 is on record?
A: 196 nM

Q: `O=C1NC2(CO1)CN(C(=O)N1CC3(CCN(Cc4ccc(C(F)(F)F)nc4)C3)C1)C2` [Example 156, 2-[7-[[6-(trifluoromethyl)-3-pyridyl]methyl]-2,7-diazaspiro[3.4]octane-2-carbonyl]-7-oxa-2,5-diazaspiro[3.4]octan-6-one] was tested. Which IC50 did it give?
A: 5.07 nM

Q: Which IC50 does the source give for `O=C1CCC2(CN(C(=O)N3CC4(CC(Cc5cnn(C(F)(F)F)c5)C4)C3)C2)N1` [Example 216, 2-[6-[[1-(trifluoromethyl)pyrazol-4-yl]methyl]-2-azaspiro[3.3]heptane-2-carbonyl]-2,5-diazaspiro[3.4]octan-6-one] here?
A: 17.6 nM

Q: `O=C1NC2(CO1)CN(C(=O)N1CC3(CC(Cc4ccc(OC(F)(F)F)nc4)C3)C1)C2` [Example 355, 2-[6-[[6-(trifluoromethoxy)-3-pyridyl]methyl]-2-azaspiro[3.3]heptane-2-carbonyl]-7-oxa-2,5-diazaspiro[3.4]octan-6-one] was tested. Which IC50 did it give?
A: 0.19 nM

Q: With `N#Cc1ncc(CC2CC3(C2)CN(C(=O)N2CC4(COC(=O)N4)C2)C3)cc1C(F)(F)F` [Example 261, 5-[[2-(6-oxo-7-oxa-2,5-diazaspiro[3.4]octane-2-carbonyl)-2-azaspiro[3.3]heptan-6-yl]methyl]-3-(trifluoromethyl)pyridine-2-carbonitrile] as the molecule, how does the IC50 read?
A: 0.43 nM

Q: For `CS(=O)(=O)c1cccc(CN2CC3(C2)CN(C(=O)N2CC4(COC(=O)N4)C2)C3)c1` [Example 187, 2-[6-[(3-methylsulfonylphenyl)methyl]-2,6-diazaspiro[3.3]heptane-2-carbonyl]-7-oxa-2,5-diazaspiro[3.4]octan-6-one], which IC50 is on record?
A: 46.7 nM

Q: Which IC50 does the source give for `O=C1CCC2(CN(C(=O)N3CC4(CC(Cc5ccc(C(F)(F)F)nc5)C4)C3)C2)N1` [Example 3, 2-[6-[[6-(trifluoromethyl)-3-pyridyl]methyl]-2-azaspiro[3.3]heptane-2-carbonyl]-2,5-diazaspiro[3.4]octan-6-one] here?
A: 2.85 nM

Q: `O=C1CCC2(CN(C(=O)N3CC4(CN(Cc5snnc5C5CCC5)C4)C3)C2)N1` [Example 334, 2-[6-[(4-cyclobutylthiadiazol-5-yl)methyl]-2,6-diazaspiro[3.3]heptane-2-carbonyl]-2,5-diazaspiro[3.4]octan-6-one] was tested. Which IC50 did it give?
A: 88.2 nM

Q: For `CS(=O)(=O)c1ccc(CC2CC3(C2)CN(C(=O)N2CC4(COCC(=O)N4)C2)C3)cc1C(F)(F)F` [Example 183], which IC50 is on record?
A: 7.31 nM

Q: Which IC50 does the source give for `N=[S@@](=O)(c1ccc(CC2CC3(C2)CN(C(=O)N2CC4(CCCC(=O)N4)C2)C3)cc1)C(F)(F)F` (single isomer, unassigned) [Example 287, 2-[6-[[4-(trifluoromethylsulfoni-midoyl)phenyl]methyl]-2-azaspiro[3.3]heptane-2-carbonyl]-2,5-diazaspiro[3.5]nonan-6-one] here?
A: 437 nM

Q: `O=C1CCC2(CN(C(=O)N3CC4(CN(Cc5ccc(C(F)(F)F)cc5F)C4)C3)C2)N1` [Example 361, 2-[6-[2-fluoro-4-(trifluoromethyl)benzyl]-2,6-diazaspiro[3.3]heptane-2-carbonyl]-2,5-diazaspiro[3.4]octan-6-one] was tested. Which IC50 did it give?
A: 5.8 nM

Q: Which IC50 does the source give for `Cn1nc(CC2CC3(C2)CN(C(=O)N2CC4(CCC(=O)N4)C2)C3)cc1C(F)(F)F` [Example 166, 2-[6-[[1-methyl-5-(trifluoromethyl)pyrazol-3-yl]methyl]-2-azaspiro[3.3]heptane-2-carbonyl]-2,5-diazaspiro[3.4]octan-6-one] here?
A: 1.31 nM

Q: For `N#Cc1ccc(CC2CC3(C2)CN(C(=O)N2CC4(COC(=O)N4)C2)C3)cc1C(F)(F)F` [Example 353], which IC50 is on record?
A: 0.1 nM

Q: Which IC50 does the source give for `N#Cc1cc(CC2CC3(C2)CN(C(=O)N2CC4(CCCC(=O)N4)C2)C3)cnc1C(F)(F)F` [Example 272, 5-[[2-(6-oxo-2,5-diazaspiro[3.5]nonane-2-carbonyl)-2-azaspiro[3.3]heptan-6-yl]methyl]-2-(trifluoromethyl)pyridine-3-carbonitrile] here?
A: 795 nM

Q: How did the IC50 turn out when `O=C1NCC2(CN(C(=O)N3CC4(CC(Cc5ccc(F)cc5C(F)(F)F)C4)C3)C2)N1` [Example 34, 2-[6-[4-fluoro-2-(trifluoromethyl)benzyl]-2-azaspiro[3.3]heptane-2-carbonyl]-2,5,7-triazaspiro[3.4]octan-6-one] was run?
A: 1.09 nM

Q: For `O=C1CCC2(CN(C(=O)N3CC4(C3)CN(S(=O)(=O)c3cccc(OC(F)(F)F)c3)C4)C2)N1` [Example 198, 2-[2-[3-(trifluoromethoxy)phenyl]sulfonyl-2,6-diazaspiro[3.3]heptane-6-carbonyl]-2,5-diazaspiro[3.4]octan-6-one], which IC50 is on record?
A: 232 nM

Q: `O=C1NC2(CO1)CN(C(=O)N1CC3(C1)CN(c1ncc(C(F)(F)F)cc1F)C3)C2` [Example 203, 2-[6-[3-fluoro-5-(trifluoromethyl)-2-pyridyl]-2,6-diazaspiro[3.3]heptane-2-carbonyl]-7-oxa-2,5-diazaspiro[3.4]octan-6-one] was tested. Which IC50 did it give?
A: 61.6 nM

Q: `O=C1NC2(CO1)CN(C(=O)N1CC3(CCN(Cc4ccc(C(F)(F)F)nn4)C3)C1)C2` [Example 158, 2-[7-[[6-(trifluoromethyl)pyrida-zin-3-yl]methyl]-2,7-diazaspiro[3.4]octane-2-carbonyl]-7-oxa-2,5-diazaspiro[3.4]octan-6-one] was tested. Which IC50 did it give?
A: 33.9 nM

Q: `CS(=O)(=O)c1ccc(C[C@H]2CCC3(C2)CN(C(=O)N2CC4(COCC(=O)N4)C2)C3)cc1` (single isomer, unassigned) [Example 74] was tested. Which IC50 did it give?
A: 77.7 nM

Q: How did the IC50 turn out when `N#Cc1cc(C(F)(F)F)ccc1CC1CC2(C1)CN(C(=O)N1CC3(COC(=O)N3)C1)C2` [Example 242, 2-[[2-(6-oxo-7-oxa-2,5-diazaspiro[3.4]octane-2-carbonyl)-2-azaspiro[3.3]heptan-6-y]methyl]-5-(trifluoroemthyl)benzoni-trile] was run?
A: 0.06 nM

Q: Which IC50 does the source give for `O=C1CCC2(CN(C(=O)N3CC4(CC(n5cnc(C6CC6)n5)C4)C3)C2)N1` [Example 131, 2-[6-(3-cyclopropyl-1,2,4-triazol-1-yl)-2-azaspiro[3.3]heptane-2-carbonyl]-2,5-diazaspiro[3.4]octan-6-one] here?
A: 209 nM

Q: For `O=C1CCC2(CN(C(=O)N3CC4(CCN(Cc5ccc(C(F)(F)F)cn5)C4)C3)C2)N1` [Example 150, 2-[7-[[5-(trifluoromethyl)-2-pyridyl]methyl]-2,7-diazaspiro[3.4]octane-2-carbonyl]-2,5-diazaspiro[3.4]octan-6-one], which IC50 is on record?
A: 140 nM

Q: Which IC50 does the source give for `Cc1nn(C)c(Cl)c1CN1CC2(C1)CN(C(=O)N1CC3(COC(=O)N3)C1)C2` [Example 305, 2-[6-[(5-chloro-1,3-dimethyl-pyrazol-4-yl)methyl]-2,6-diazaspiro[3.3]heptane-2-carbonyl]-7-oxa-2,5-diazaspiro[3.4]octan-6-one] here?
A: 20.9 nM

Q: For `O=C1CCC2(CN(C(=O)N3CC4(CC(Cc5ccc6[nH]ncc6n5)C4)C3)C2)N1` [Example 321, 2-[6-(1H-pyrazolo[4,3-b]pyridin-5-ylmethyl)-2-azaspiro[3.3]heptane-2-carbonyl]-2,5-diazaspiro[3.4]octan-6-one], which IC50 is on record?
A: 88.2 nM

Q: Which IC50 does the source give for `Cn1ncc(C(F)(F)F)c1CC1CC2(C1)CN(C(=O)N1CC3(COCC(=O)N3)C1)C2` [Example 366, 2-[6-[[2-methyl-4-(trifluoromethyl)pyrazol-3-yl]methyl]-2-azaspiro[3.3]heptane-2-carbonyl]-8-oxa-2,5-diazaspiro[3.5]nonan-6-one] here?
A: 22.4 nM

Q: For `O=C1CCC2(CN(C(=O)N3CC4(CC(Cn5cnc(C6(C(F)(F)F)CC6)n5)C4)C3)C2)N1` [Example 330, 2-[6-[[3-[1-(trifluoromethyl)cyclopro-pyl]-1,2,4-triazol-1-yl]methyl]-2-azaspiro[3.3]heptane-2-carbonyl]-2,5-diazaspiro[3.4]octan-6-one], which IC50 is on record?
A: 24.6 nM

Q: Which IC50 does the source give for `O=C1CCC2(CN(C(=O)N3CC4(CC(NS(=O)(=O)c5cccc(C(F)(F)F)c5)C4)C3)C2)N1` [Example 55, N-[2-(6-keto-2,5-diazaspiro[3.4]octane-2-carbonyl)-2-azaspiro[3.3]heptan-6-yl]-3-(trifluoromethyl)benzen esulfonamide] here?
A: 9.81 nM

Q: Which IC50 does the source give for `O=C1CCC2(CN(C(=O)N3CC4(CC(Cc5ccc6ncnn6c5)C4)C3)C2)N1` [Example 320, 2-[6-([1,2,4]triazolo[1,5-a]pyridin-6-ylmethyl)-2-azaspiro[3.3]heptane-2-carbonyl]-2,5-diazaspiro[3.4]octan-6-one] here?
A: 171 nM

Q: With `CP(C)(=O)c1ccc(CC2CC3(C2)CN(C(=O)N2CC4(CCC(=O)N4)C2)C3)c(F)c1` [Example 336, 2-[6-(4-dimethylphosphoryl-2-fluoro-benzyl)-2-azaspiro[3.3]heptane-2-carbonyl]-2,5-diazaspiro[3.4]octan-6-one] as the molecule, how does the IC50 read?
A: 146 nM

Q: `Cn1nc(C(F)(F)F)cc1CC1CC2(C1)CN(C(=O)N1CC3(CCC(=O)N3)C1)C2` [Example 246, 2-[6-[[2-methyl-5-(trifluoromethyl)pyrazol-3-yl]methyl]-2-azaspiro[3.3]heptane-2-carbonyl]-2,5-diazaspiro[3.4]octan-6-one] was tested. Which IC50 did it give?
A: 6.17 nM
